Measurements as given in publication doi:10.1101/2023.05.15.540887, “Comparative analysis of drug-like EP300/CREBBP acetyltransferase inhibitors” (bioRxiv, 2023).

What was measured:
[1] = system: MCF10A PANK4 KO+PANK4 WT cells; assay: Sulforhodamine B cell growth assay, MCF10A PANK4 KO+PANK4 WT; format: cell-based, human
K-562 = assay: NCI-60 growth inhibition (sulforhodamine B); format: cell-based, human; settings: K-562 (Leukemia), negative log of Molar conc., LCONC -8
RPMI-8226 = assay: NCI-60 growth inhibition (sulforhodamine B); format: cell-based, human; settings: RPMI-8226 (Leukemia), negative log of Molar conc., LCONC -8
EKVX = assay: NCI-60 growth inhibition (sulforhodamine B); format: cell-based, human; settings: EKVX (Non-Small Cell Lung Cancer), negative log of Molar conc., LCONC -8
HOP-92 = assay: NCI-60 growth inhibition (sulforhodamine B); format: cell-based, human; settings: HOP-92 (Non-Small Cell Lung Cancer), negative log of Molar conc., LCONC -8
NCI-H522 = assay: NCI-60 growth inhibition (sulforhodamine B); format: cell-based, human; settings: NCI-H522 (Non-Small Cell Lung Cancer), negative log of Molar conc., LCONC -8
SF-295 = assay: NCI-60 growth inhibition (sulforhodamine B); format: cell-based, human; settings: SF-295 (CNS Cancer), negative log of Molar conc., LCONC -8
MALME-3M = assay: NCI-60 growth inhibition (sulforhodamine B); format: cell-based, human; settings: MALME-3M (Melanoma), negative log of Molar conc., LCONC -8
ACHN = assay: NCI-60 growth inhibition (sulforhodamine B); format: cell-based; settings: Homo sapiens, Renal Cancer, negative log of Molar value
CAKI-1 = assay: NCI-60 growth inhibition (sulforhodamine B); format: cell-based; settings: Homo sapiens, CAKI-1, Renal Cancer, negative log of Molar value, LCONC -8, EXPID 2301NS84
RXF393 = assay: NCI-60 growth inhibition (sulforhodamine B); format: cell-based; settings: Homo sapiens, RXF 393, Renal Cancer, negative log of Molar value, LCONC -8, EXPID 2301NS84
UO-31 = assay: NCI-60 growth inhibition (sulforhodamine B); format: cell-based; settings: Homo sapiens, UO-31, Renal Cancer, negative log of Molar value, LCONC -8, EXPID 2301NS84
DU-145 = assay: NCI-60 growth inhibition (sulforhodamine B); format: cell-based; settings: Homo sapiens, DU-145, Prostate Cancer, negative log of Molar value, LCONC -8, EXPID 2301NS84
OVCAR-3 = assay: NCI-60 growth inhibition (sulforhodamine B)
MDA-MB-468 = assay: NCI-60 growth inhibition (sulforhodamine B); settings: Homo sapiens
[2] = Homo sapiens, read-out: GI50 NLOGVALUE
[3] = Homo sapiens, read-out: IC50 NLOGVALUE (converted)
[4] = Homo sapiens, read-out: LC50 NLOGVALUE
[5] = Homo sapiens, read-out: GI50 NLOGVALUE (converted)
[6] = Homo sapiens, read-out: IC50 NLOGVALUE
[7] = read-out: GI50 NLOGVALUE (converted)

## C[C@H](CN[C@@H](C(=O)Nc1ccc(-c2cnn(C)c2)cn1)c1ccccc1)c1ccc(C#N)cc1 [CPI-1612]
[1]; Homo sapiens, MCF-10A KO+PANK4 WT, 72 h
  IC50: 0.0089 µM
[1]; PANK4 KO+WT cells, 1 μM
  growth inhibition activity at 1 μM: remains active
K-562; Homo sapiens, K562, read-out: GI50 NLOGVALUE
  GI50: < 0.01 µM
K-562; Homo sapiens, K562, read-out: IC50 NLOGVALUE
  IC50: < 0.01 µM
K-562; Homo sapiens, K562, read-out: LC50 NLOGVALUE
  CC50: > 100 µM
K-562
  TGI NLOGVALUE: 4
RPMI-8226; [2]
  GI50: < 0.01 µM
RPMI-8226; [3]
  IC50: 0.0126 µM
RPMI-8226; [4]
  CC50: > 100 µM
RPMI-8226
  TGI NLOGVALUE: 4.56
EKVX
  TGI NLOGVALUE: 4
EKVX; [5]
  GI50: 1.51 µM
EKVX; [6]
  IC50: > 100 µM
HOP-92
  TGI NLOGVALUE: 4
HOP-92; [5]
  GI50: 1.62 µM
HOP-92; [6]
  IC50: > 100 µM
HOP-92; [4]
  CC50: > 100 µM
NCI-H522; [5]
  GI50: 0.115 µM
NCI-H522; [6]
  IC50: > 100 µM
NCI-H522
  TGI NLOGVALUE: 4
SF-295; [2]
  GI50: < 0.01 µM
SF-295; [3]
  IC50: 4.17 µM
SF-295; [4]
  CC50: > 100 µM
SF-295
  TGI NLOGVALUE: 4
MALME-3M; [2]
  GI50: < 0.01 µM
MALME-3M; [6]
  IC50: > 100 µM
MALME-3M; [4]
  CC50: > 100 µM
MALME-3M
  TGI NLOGVALUE: 4
ACHN; LCONC -8, EXPID 2301NS84, read-out: GI50 NLOGVALUE (converted)
  GI50: 0.0129 µM
ACHN; LCONC -8, EXPID 2301NS84, read-out: IC50 NLOGVALUE (converted)
  IC50: 0.0309 µM
CAKI-1; read-out: GI50 NLOGVALUE
  GI50: < 0.01 µM
CAKI-1; read-out: LC50 NLOGVALUE
  CC50: > 100 µM
RXF393; [7]
  GI50: 55 µM
RXF393; read-out: IC50 NLOGVALUE
  IC50: > 100 µM
RXF393; read-out: LC50 NLOGVALUE
  CC50: > 100 µM
UO-31; read-out: GI50 NLOGVALUE
  GI50: < 0.01 µM
UO-31; read-out: IC50 NLOGVALUE (converted)
  IC50: 0.0282 µM
UO-31; read-out: LC50 NLOGVALUE
  CC50: > 100 µM
DU-145; [7]
  GI50: 21.4 µM
DU-145; read-out: IC50 NLOGVALUE
  IC50: > 100 µM
DU-145; read-out: LC50 NLOGVALUE
  CC50: > 100 µM
OVCAR-3; Homo sapiens, OVCAR-3, read-out: GI50 NLOGVALUE
  GI50: 0.186 µM
OVCAR-3; Homo sapiens, OVCAR-3, read-out: IC50 NLOGVALUE
  IC50: 24 µM
OVCAR-3; Homo sapiens, OVCAR-3, read-out: LC50 NLOGVALUE
  CC50: > 100 µM
OVCAR-3; OVCAR-3 (Ovarian Cancer), negative log of Molar conc., LCONC -8
  TGI NLOGVALUE: 4
MDA-MB-468; MDA-MB-468, read-out: GI50 NLOGVALUE
  GI50: < 0.01 µM
MDA-MB-468; MDA-MB-468, read-out: IC50 NLOGVALUE
  IC50: > 100 µM
